Reference: article PMC7380166, “How to Study the Metabolism of New Psychoactive Substances for the Purpose of Toxicological Screenings—A Follow-Up Study Comparing Pooled Human Liver S9, HepaRG Cells, and Zebrafish Larvae” (Frontiers in Chemistry, 2020)

Experiments:
[1] = Incubations with pooled human liver S9 fraction (pHLS9), metabolite identification by LC-HRMS/MS; format: in vitro ADME; conditions: for Absolute peak area, pHLS9 1 h [25 μM] / Absolute peak area, pHLS9 6 h [25 μM]: 25 μM 4F-MDMB-BINACA, one replicate of n = 2, n.d. = not detected; for Absolute peak area, pHLS9 1 h [25 μM]: 1 h incubation; for Absolute peak area, pHLS9 6 h [25 μM]: 6 h incubation
Experimental: According to published procedures (Richter et al., [2017b], [2019b]; Caspar et al., [2018b]; Wagmann et al., [2019b],[c]), the final incubation volume per reaction tube was 150 μl, with a final protein concentration of 2 mg/ml. The given concentrations represent final concentrations. A preincubation for 10 min at 37°C with UGT reaction mixture solution B (containing alamethicin, 25 μg/ml), MgCl2 (2.5 mM), NADP^+ (0.6 mM), isocitrate (2.5 mM), isocitrate dehydrogenase (0.8 U/ml), superoxide dismutase (100 U/ml), acetyl coenzyme A (0.1 mM), phosphate buffer (90 mM, pH 7.4), and pHLS9 (2 mg/ml) was done. Afterwards, UGT reaction mixture solution A (containing UDP glucuronic acid, 2.5 mM), PAPS (40 μM), SAM (1.2 mM), dithiothreitol (1 mM), and glutathione (10 mM) were added, as well as 25 μM 4F-MDMB-BINACA to start the reactions. The mixture was incubated for 360 min. Total amount of organic solvent in incubation mixtures was <2% (Chauret et al., [1998]). After 60 min, an aliquot of the reaction mixture (60 μl) was transferred in another reaction tube containing 20 μl of ice-cold acetonitrile to terminate the reactions. The remaining aliquot (90 μl) was incubated for an additional 300 min, and then the reactions were stopped by adding 30 μl of ice-cold acetonitrile. Thereafter, the reaction tubes were cooled at −20°C for 30 min prior to centrifugation at 18,407 × g for 2 min. The supernatants (50 μl) were transferred into autosampler vials, and 1 μl was injected onto the LC-HRMS/MS system. Control samples without pHLS9 and blank samples without substrate were prepared to confirm the absence of non-metabolically formed and interfering compounds, respectively. All incubations were performed in duplicate.
According to a previous study (Richter et al., [2019a]), a Thermo Fisher Scientific (TF, Dreieich, Germany) Dionex UltiMate 3000 Rapid Separation (RS) UHPLC system with a quaternary UltiMate 3000 RS pump and an UltiMate 3000 RS autosampler controlled by the TF Chromeleon software version 6.8 was used. The LC system was coupled to an Orbitrap-based TF Q-Exactive Plus equipped with a heated electrospray ionization II (HESI-II) source. Calibration was done prior to analysis with a Positive Cal Mix (Supelco, Bellefonte, PA, USA) at a flow rate of 3 μl/min using a syringe pump. The conditions of the LC system were as follows: TF Accucore PhenylHexyl column (100 × 2.1 mm, 2.6 μm particle size); gradient elution with 2 mM ammonium formate solution containing 0.1% (v/v) formic acid (eluent A) and 2 mM ammonium formate solution in acetonitrile/methanol (50:50, v/v) containing 0.1% (v/v) formic acid, and 1% (v/v) water (eluent B). […] The following gradient was used: 0–1.0 min hold 1% B, 1–10 min to 99% B, 10–11.5 min hold 99% B, 11.5–13.5 min hold 1% B. The HESI-II source conditions were as follows: ionization mode, positive; heater temperature, 320°C; ion transfer capillary temperature, 320°C; sheath gas, 60 arbitrary units (AU); auxiliary gas, 10 AU; spray voltage, 4.00 kV; and S-lens RF level, 50.0. Mass spectrometry experiments were performed using high-resolution (HR) full scan mode and a targeted MS^2 mode with an inclusion list for each NPS. The inclusion list contained m/z values of metabolites, which were likely to be formed for example hydroxy, oxo, carboxy, dealkyl, demethylenylated, and defluorinated metabolites (phase I) as well as sulfates and glucuronides (phase II) and combinations of them. Full scan settings were as follows: resolution, 35,000; automatic gain control (AGC) target, 3e6; maximum injection time (IT), 120 ms; scan ranges, 3,4-DMA-NBOMe m/z 100–700, ephylone m/z 200–600, 4F-MDMB-BINACA m/z 150–700, 4F-PHP m/z 200–600, and 1P-LSD m/z 250–700. The settings for the targeted MS^2 mode with the respective inclusion lists were as follows: resolution, 17,500; AGC target, 2e5; maximum IT, 250 ms; loop count, 5; isolation window, 1.0 m/z; stepped normalized collision energy (NCE), 17.5, 35, 52.5%; pick others, enabled. […]

CYP3A5 = molecular target: T1, CYP3A5 (Homo sapiens, UniProt P20815); experiment: Monooxygenases activity screening, CYP3A5; format: in vitro ADME; parameters: key: +, detected; –: −, not detected; conditions: 25 μM 4F-MDMB-BINACA, 50 pmol/ml enzyme, 30 min, 37°C, duplicate
T1 construct: purchased Corning; host or cells: baculovirus-transfected insect cell microsomes (Supersomes)
Experimental: (§1) According to an established protocol (Wagmann et al., [2016]), the final volume per reaction tube was 50 μl with a final 4F-MDMB-BINACA concentration of 25 μM and enzyme concentrations of 50 pmol/ml for CYP1A2, CYP2A6, CYP2B6, CYP2C8, CYP2C9, CYP2C19, CYP2D6, CYP2E1, CYP3A4, and CYP3A5, respectively, or 0.25 mg protein/ml for FMO3. Furthermore, the reaction mixture contained 90 mM phosphate buffer (pH 7.4), superoxide dismutase (200 U/ml), isocitrate (5 mM), MgCl2 (5 mM), isocitrate dehydrogenase (0.5 U/ml), and NADP^+ (1.2 mM). The phosphate buffer was replaced with Tris buffer (90 mM) for incubations with CYP2A6 and CYP2C9 according to the manufacturer's recommendation. All incubations were performed at 37°C for 30 min and terminated by adding 50 μl of ice-cold acetonitrile. Afterwards, the mixtures were centrifuged at 18,407 × g for 5 min, 70 μl of the supernatants was transferred into autosampler vials, and 1 μl was injected onto the LC-HRMS/MS system. Positive control incubations were performed with pHLM (1 mg microsomal protein/ml), and negative controls without enzyme were prepared to identify non-metabolically formed compounds. All incubations were done in duplicate.

CYP2E1 = molecular target: T2, CYP2E1 (Homo sapiens, UniProt P05181); experiment: Monooxygenases activity screening, CYP2E1; format: in vitro ADME; parameters: key: +, detected; –: −, not detected; conditions: 25 μM 4F-MDMB-BINACA, 50 pmol/ml enzyme, 30 min, 37°C, duplicate
T2 construct: purchased Corning; host or cells: baculovirus-transfected insect cell microsomes (Supersomes)
Experimental: as §1

CYP2D6 = molecular target: T3, CYP2D6 (Homo sapiens, UniProt P10635); experiment: Monooxygenases activity screening, CYP2D6; format: in vitro ADME; parameters: key: +, detected; –: −, not detected; conditions: 25 μM 4F-MDMB-BINACA, 50 pmol/ml enzyme, 30 min, 37°C, duplicate
T3 construct: purchased Corning; host or cells: baculovirus-transfected insect cell microsomes (Supersomes)
Experimental: as §1

[2] = Monooxygenases activity screening, pHLM positive control; format: in vitro ADME, human; parameters: key: +, detected; –: −, not detected; conditions: 25 μM 4F-MDMB-BINACA, 1 mg microsomal protein/ml, 30 min, 37°C, duplicate
Experimental: as §1

CYP2C9 = molecular target: T4, CYP2C9 (Homo sapiens, UniProt P11712); experiment: Monooxygenases activity screening, CYP2C9; format: in vitro ADME; parameters: key: +, detected; –: −, not detected; conditions: 25 μM 4F-MDMB-BINACA, 50 pmol/ml enzyme, 30 min, 37°C, duplicate
T4 construct: purchased Corning; host or cells: baculovirus-transfected insect cell microsomes (Supersomes)
Experimental: as §1

T1 sequence (P20815 whole entry): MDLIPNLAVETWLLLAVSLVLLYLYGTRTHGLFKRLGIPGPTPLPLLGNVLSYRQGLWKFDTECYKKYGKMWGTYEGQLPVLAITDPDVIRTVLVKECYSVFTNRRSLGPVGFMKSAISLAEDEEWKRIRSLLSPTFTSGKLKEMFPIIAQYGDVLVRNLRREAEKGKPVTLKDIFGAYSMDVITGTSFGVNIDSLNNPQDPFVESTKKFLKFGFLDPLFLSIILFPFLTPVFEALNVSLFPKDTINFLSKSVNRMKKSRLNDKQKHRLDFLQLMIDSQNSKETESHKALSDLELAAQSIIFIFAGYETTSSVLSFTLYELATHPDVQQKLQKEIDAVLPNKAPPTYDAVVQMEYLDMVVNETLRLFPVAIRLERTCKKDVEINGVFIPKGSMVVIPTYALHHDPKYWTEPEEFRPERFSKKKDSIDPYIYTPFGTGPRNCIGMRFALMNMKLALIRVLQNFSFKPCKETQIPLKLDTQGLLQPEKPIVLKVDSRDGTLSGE
T2 sequence (P05181 whole entry): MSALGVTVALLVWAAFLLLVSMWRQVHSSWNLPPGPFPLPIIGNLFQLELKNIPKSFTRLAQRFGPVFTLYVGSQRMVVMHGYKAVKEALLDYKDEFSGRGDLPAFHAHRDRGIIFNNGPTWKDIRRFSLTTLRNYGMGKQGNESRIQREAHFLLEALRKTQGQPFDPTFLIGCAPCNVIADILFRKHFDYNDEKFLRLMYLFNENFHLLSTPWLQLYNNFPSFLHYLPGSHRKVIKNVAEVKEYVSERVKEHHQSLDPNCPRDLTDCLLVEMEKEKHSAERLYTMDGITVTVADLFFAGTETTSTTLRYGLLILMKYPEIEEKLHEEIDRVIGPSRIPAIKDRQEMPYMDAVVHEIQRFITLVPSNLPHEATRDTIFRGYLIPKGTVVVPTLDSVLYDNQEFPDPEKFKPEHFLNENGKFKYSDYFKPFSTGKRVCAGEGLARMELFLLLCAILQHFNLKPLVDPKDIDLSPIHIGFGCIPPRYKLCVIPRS
T4 sequence (P11712 whole entry): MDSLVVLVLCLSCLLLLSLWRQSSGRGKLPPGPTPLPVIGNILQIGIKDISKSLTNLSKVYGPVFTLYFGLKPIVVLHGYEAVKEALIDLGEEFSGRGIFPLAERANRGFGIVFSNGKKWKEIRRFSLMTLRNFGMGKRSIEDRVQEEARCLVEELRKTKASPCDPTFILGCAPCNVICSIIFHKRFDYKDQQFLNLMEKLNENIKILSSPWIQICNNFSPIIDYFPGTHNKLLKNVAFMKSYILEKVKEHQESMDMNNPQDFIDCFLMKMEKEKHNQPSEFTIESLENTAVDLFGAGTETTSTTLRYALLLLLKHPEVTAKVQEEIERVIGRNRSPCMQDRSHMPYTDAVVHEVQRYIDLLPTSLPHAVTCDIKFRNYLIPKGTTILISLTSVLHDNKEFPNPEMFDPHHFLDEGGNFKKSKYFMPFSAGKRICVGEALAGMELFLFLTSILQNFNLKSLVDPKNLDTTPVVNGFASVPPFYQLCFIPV
T3 sequence (P10635 whole entry): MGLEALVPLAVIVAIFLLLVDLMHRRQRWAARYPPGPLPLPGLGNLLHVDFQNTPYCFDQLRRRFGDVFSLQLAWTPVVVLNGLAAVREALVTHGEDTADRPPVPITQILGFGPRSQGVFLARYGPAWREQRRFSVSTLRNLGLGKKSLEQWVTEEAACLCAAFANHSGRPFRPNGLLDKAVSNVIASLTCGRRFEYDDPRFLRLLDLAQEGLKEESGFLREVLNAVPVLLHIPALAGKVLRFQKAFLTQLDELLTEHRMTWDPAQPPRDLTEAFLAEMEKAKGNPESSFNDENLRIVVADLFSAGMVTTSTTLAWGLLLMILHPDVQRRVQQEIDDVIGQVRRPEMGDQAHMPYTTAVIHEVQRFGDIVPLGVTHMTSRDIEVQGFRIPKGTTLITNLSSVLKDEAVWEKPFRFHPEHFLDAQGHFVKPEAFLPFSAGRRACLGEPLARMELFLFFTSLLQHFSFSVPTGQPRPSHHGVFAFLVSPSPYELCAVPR

Structure (SMILES)	Number of phase I metabolites detected, pHLS9 [25 μM] ([1]; 25 μM)	Absolute peak area, pHLS9 1 h [25 μM] [1]	Absolute peak area, pHLS9 6 h [25 μM] [1]	Relative number of matches with the four most abundant signals in human plasma, pHLS9 [25 μM] ([1]; plasma, human data for ephylone and 4F-PHP from Wagmann et al., [2019b])	Relative number of matches with the four most abundant signals in human urine, pHLS9 [25 μM] ([1]; urine, human data for ephylone and 4F-PHP from Wagmann et al., [2019b])	Detection of metabolite in incubation with CYP3A5 (CYP3A5)	Detection of metabolite in incubation with CYP2E1 (CYP2E1)	Detection of metabolite in incubation with CYP2D6 (CYP2D6)	Detection of metabolite in incubation with pHLM [2]	Detection of metabolite in incubation with CYP2C9 (CYP2C9)
COC(=O)C(NC(=O)c1nn(CCCCF)c2ccccc12)C(C)(C)C (stereo not shown) [4F-MDMB-BINACA, methyl 2-[1-(4-fluorobutyl)-1H-indazole-3-carbonyl]amino-3,3-dimethylbutanoate]	15	9.37E+08	2.17E+08	100%	75%					
O=C(O)c1nn(CCCCF)c2ccccc12 [MB1]						–	–	–	+	–
COC(=O)[C@@H](NC(=O)c1n[nH]c2ccccc12)C(C)(C)C [MB4]		5.62E+06	2.82E+05			+	–	–	+	–
CC(C)(C)C(NC(=O)c1nn(CCCCF)c2ccccc12)C(=O)O (stereo not shown) [MB8]		1.01E+08	2.77E+08			–	–	–	+	–
COC(=O)[C@@H](NC(=O)c1nn(CCCCO)c2ccccc12)C(C)(C)C [MB11]		4.27E+06	3.89E+05			+	–	–	+	–
COC(=O)[C@@H](NC(=O)c1nn(CCCCF)c2ccccc12)C(C)(C)CO [MB16]		1.70E+05				+	–	–	+	–
